# Laboratory results taken from patent EP0812190B1 (priority 1993, dated 1995).
# Structures can show the parent of a compound that is named as a salt. Where two headings read alike, the source gives them in different places. Marks after values point to notes of the source that are not given here.
# Key:
# neurological deficits = conditions: 300 mg/kg
# Method: TD50 (median toxic dose). This test measures neurological deficits by the rotorod ataxia test. A mouse is placed on a knurled rod rotating at 6 rpm. It is then determined whether a mouse has the ability to maintain its equilibrium and stay on the rod for one minute in each of three trials.
# [1] = system: minimal seizure threshold; conditions: 141 mg/kg
# Method: Timed Intravenous Infusion of Metrazol Test. This test measures the minimal seizure threshold of each animal. […] The time is then recorded (sec) from the start of infusion until the appearance of the first twitch (first focal seizure) and onset of clonus (clonic seizure).
# [2] = system: maximal electroshock seizures; experiment: animal or person; conditions: for mice protected: 100 mg/kg; for ED50: Mus musculus, ip
# Text: (§1) The MES test is a classical model to indicate efficacy for partial and generalized seizures in humans. […] Some agents, however, that prevent seizure spread have the side effect of lowering seizure threshold. These agents therefore have both proconvulsive and anticonvulsive side effects.
# MAO-A = molecular target: T1, MAO-A (Rattus norvegicus, UniProt P21396); experiment: Rat brain MAO inhibition by propargylamines (Table IA), MAO-A; assay type: biochemical; design: MAO activity determined in brain and liver using the general technique described above; from tissue; host or cells: brain and liver of treated rats; conditions: ratio between epimers
# T1 sequence (P21396 1-526): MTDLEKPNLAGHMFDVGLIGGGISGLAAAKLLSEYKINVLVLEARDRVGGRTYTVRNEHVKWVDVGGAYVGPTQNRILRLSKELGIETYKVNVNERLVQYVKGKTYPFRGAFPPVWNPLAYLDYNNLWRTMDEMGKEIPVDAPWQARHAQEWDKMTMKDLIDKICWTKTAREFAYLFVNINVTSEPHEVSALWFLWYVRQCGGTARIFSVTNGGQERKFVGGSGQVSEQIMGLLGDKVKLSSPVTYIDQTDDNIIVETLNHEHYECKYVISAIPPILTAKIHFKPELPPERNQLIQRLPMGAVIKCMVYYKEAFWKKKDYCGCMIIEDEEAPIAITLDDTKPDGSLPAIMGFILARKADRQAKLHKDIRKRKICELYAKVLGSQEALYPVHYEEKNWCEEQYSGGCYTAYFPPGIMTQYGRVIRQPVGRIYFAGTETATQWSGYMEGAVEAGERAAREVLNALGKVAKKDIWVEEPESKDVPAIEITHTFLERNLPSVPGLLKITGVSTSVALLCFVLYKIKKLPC
# MAO-B = molecular target: T2, MAO-B (Rattus norvegicus, UniProt P19643); experiment: Rat brain MAO inhibition by propargylamines (Table IA), MAO-B; assay type: biochemical; design: in a rat brain preparation of MAO; from tissue; host or cells: rat brain preparation; conditions: ratio between epimers, MAO-B
# T2 sequence (P19643 1-520): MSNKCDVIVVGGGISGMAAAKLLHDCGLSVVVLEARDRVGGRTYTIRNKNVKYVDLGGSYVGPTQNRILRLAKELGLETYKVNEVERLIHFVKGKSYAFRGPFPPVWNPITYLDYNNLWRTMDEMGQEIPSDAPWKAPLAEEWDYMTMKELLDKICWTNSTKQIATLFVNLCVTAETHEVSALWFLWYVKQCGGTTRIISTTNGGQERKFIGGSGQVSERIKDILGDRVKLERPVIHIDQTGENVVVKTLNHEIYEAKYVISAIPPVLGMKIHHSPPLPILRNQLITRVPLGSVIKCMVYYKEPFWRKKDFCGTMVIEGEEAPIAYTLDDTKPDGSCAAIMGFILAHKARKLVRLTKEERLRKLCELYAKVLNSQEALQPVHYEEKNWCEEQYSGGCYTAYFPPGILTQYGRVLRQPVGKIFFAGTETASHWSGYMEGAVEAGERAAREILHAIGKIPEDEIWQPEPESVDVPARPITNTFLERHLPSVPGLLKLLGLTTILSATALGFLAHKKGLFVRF
# [3] = system: maximal electroshock seizures; conditions: rats, p.o., 50 mg/kg
# Text: as §1
# [4] = system: minimal seizure threshold; conditions: literature (Kupferberg); cited from earlier work
# closed head injury [5] = conditions: 0.1 mg/kg i.p. at 0, 4, 8 and 12 h after head trauma
# Method: (§2) Head trauma was induced in male rats under ether anesthesia by a well calibrated weight-drop device that falls over the exposed skull, covering the left cerebral hemisphere, 1-2 mm lateral to the midline, in the midcoronal plane.
# These criteria, referred to as the Neurological Severity Score (NSS), consist of a series of reflexes and motor functions. Points are given based on deficits in these criteria. At 24h the rats were reevaluated.
# (§3) [R] (+)PAI Mesylate was dissolved in water. The rats were injected intraperitoneally at a dose of 0.1 mg/kg, 0, 4, 8 and 12 h after induction of head trauma. Control rats were treated with water at the same times.
# [6] = system: haloperidol-induced catalepsy
# Method: (+)PAI mesylate, or racemic-PAI mesylate. All drugs were administered i.p. in a volume of 0.2 mL. Two hours later, haloperidol was injected s.c. at a dose of 6mg/kg in a volume of 0.1-0.2 mL. Motor coordination tests were made at 3 hours after giving haloperidol, that is, 5 hours after administering the presumed protective drugs.
# Motor coordination tests and rigidity were quantified according to three different parameters: (a) ability to walk the length of a horizontal rod, 80 cm-long; (b) ability co climb down, face down, a vertical rod, 80 cm-long; (c) duration of immobility in an unnatural sitting posture whereby the abdomen of the mouse is pressed against a "wall." Full performance as in haloperidol-untreated mice is given the score of 4 in each test, or a total of 12 in all tests. Poor performance is given a score from 1 to 3.
# [7] = system: NMDA-induced cell death of cerebellum cells; experiment: cells
# Method: Procedures: Cultures of mechanically dissociated neonatal rat cerebellum. […] The cerebella are then dissociated after 20-25 passages through a sterile 13 gauge, 10 cm long stainless steel needle attached to a 5 ml syringe with an inserted 45 µm pore size nylon sieve. The dissociated cells are centrifuged at 200g for 5 minutes, the supernatant discarded and the cells resuspended in enriched medium. The cell viability is determined by the trypan blue exclusion test. […] After 4 days in culture, the media are replaced with media containing the desired test compounds. Experiments are done in duplicate and repeated 2 or 3 times. […] Nerve cell survival is evaluated by phase contrast microscopy and trypan blue staining after 24 h.
# [8] = system: α-MpT-induced hypokinesia; experiment: Reversal of α-MpT-induced hypokinesia in rats; assay type: in vivo
# Method: The drug α-MpT is assumed to inhibit the formation of L-DOPA from tyrosine, and consequently the formation of dopamine itself. Lack of CNS dopamine is expressed as hypoactivity. Six month-old male Wistar rats (from Harlan Orkack, UK) were pretreated with saline, [R] […] Two hours later they received i.p. α-MpT at a dose of 100 mg/kg in 0.3-0.5 mL. Controls received saline. Following this, motor activity was recorded in a computerized activity cage for the duration of 10 hours. […] (+)PAI Mesylate at 2 mg/kg.
# closed head injury [9] = conditions: 24 h after trauma; 0.1 mg/kg i.p. at 0, 4, 8 and 12 h
# Method: as §2, §3
# [10] = system: crush injury of the optic nerve
# Method: • a) General. […] At short terms, metabolic measurements were monitored in terms of the mitochondrial NADH/NAD ratio, which depends on the activity of the electron transport system, and thus indicate levels of energy production. Changes in ability of the nerve to produce energy as a consequence of injury were determined by comparing NADH levels in response to artificial transient anoxic insult before and after the injury. • b) Surface fluorometry - reflectometry. Monitoring of the intramitochondrial NADH redox state is based on the fact that NADH, unlike the oxidized form NAD^+, fluoresces when illuminated […]. A flexible Y-shaped bundle of optic fibers (light guide) was used to transmit the light to and from the optic nerve. […] Changes in the reflected light were correlated with changes in tissue absorption caused by hemodynamic effects and with movements of the optic nerve secondary to alterations in arterial blood pressure and nerve volume. […] Animal utilization was in accord with the ARVO Resolution on the use of animals in research. Male Sprague-Dawley (SPD) rats weighing 300-400g were anesthetized with sodium pentobarbitone (50 mg/kg intraperitoneally). With the animal's head held in place by a head holder, a lateral canthotomy was performed under a binocular operating microscope and the conjuctiva was incised lateral to the cornea.
# [11] = Rattus norvegicus, 24 h, read-out: Percent Protection
# [12] = Rattus norvegicus, 24 h, read-out: Surviving Cells
molecule,measurement,setting,value
"C#CCN[C@H]1CCc2ccccc21 [[S](-)PAI Mesylate, reference compound]",acute neurotoxicity,neurological deficits; mice,four out of four mice showed neurotoxicity and spasticity
same,time to first focal seizure and onset of clonus,[1],reduces the time
same,mice protected,[2],three out of three
"C#CCNC1CCCc2ccccc21 (racemic) [Example 1-PAT, N-propargyl-1-aminotetralin]",RELATIVE POTENCY R/S A,MAO-A,4
same,RELATIVE POTENCY R/S B,MAO-B,0.5
"C#CCN[C@H]1CCc2ccccc21 [[S](-)PAI HCl, S-(-)-N-Propargyl-1-aminoindan hydrochloride, reference compound]",ED50,[2],57 mg/kg
same,animals protected from seizures,[3],Four out of four
O=C1NC(=O)C(c2ccccc2)(c2ccccc2)N1 [phenytoin],time to first focal seizure and onset of clonus,[4],do not show this effect
"C#CCN[C@@H]1CCc2ccccc21.Cl [[R](+)PAI HCl, R-(+)-N-Propargyl-1-aminoindan hydrochloride]",ED50,[2],79 mg/kg
same,animals protected from seizures,[3],three out of four
N-Methyl-N-propargyl-1-aminotetralin [Example 2-MPAI],RELATIVE POTENCY +/- A,MAO-A,3
same,RELATIVE POTENCY +/- B,MAO-B,0.2
NC(=O)N1c2ccccc2C=Cc2ccccc21 [carbamazepine],time to first focal seizure and onset of clonus,[4],do not show this effect
"C#CCN[C@@H]1CCc2ccccc21.CS(=O)(=O)O [[R](+)PAI Mesylate, R-(+)-N-propargyl-1-aminoindan mesylate]",NSS 1 h,closed head injury [5],16.7
same,NSS 24 h,closed head injury [5],10.2
same,Δ NSS (1h - 24h),closed head injury [5],6.5 ± 0.7
same,acute neurotoxicity,"neurological deficits; mouse, in vivo",did not show any neurotoxicity
same,% of control,[6]; 3.0 mg/kg i.p.,60%
same,Score+SE,[6]; 3.0 mg/kg i.p.,6.4±0.5
same,% of control,[6]; 5.0 mg/kg i.p.,73%
same,Score+SE,[6]; 5.0 mg/kg i.p.,8.7±0.9
same,Score+SE,[6]; 10 mg/kg i.p.,11.3±0.3
same,% of control,"[6]; 10 mg/kg i.p., listed as [R] (+)PAI Mesylate, mesylate",94%
same,% of control,"[6]; 10 mg/kg i.p., listed as [R] (+)PAI mesylate, mesylate",≈ 94%
same,% of control,[6]; 15 mg/kg i.p.,90%
same,Score+SE,[6]; 15 mg/kg i.p.,10.8±0.5
same,Score+SE,"[6]; […] i.p. (free base), 2 h before haloperidol 6mg/kg s.c., max score 12",7.2±1
same,inhibition at 0.01 µM,[7]; [11],2%
same,inhibition at 10 µM,[7]; [11],27%
same,viability at 1 µM,[7]; [12],22%
same,viability at 10 µM,[7]; [12],37%
same,Percent Protection,"[7]; cerebellar cell cultures, 1440 min, 1 µM",12%
same,Surviving Cells,"[7]; rat, cerebellar cell cultures, 24 h, 0.01 µM",12% of untreated controls
same,"Score (total motor activity, 10 hours)","[8]; 2 mg/kg i.p., 2 h before α-MpT 100 mg/kg i.p., SE in the line below","14,132**"
same,% of control,"[8]; 2 mg/kg i.p., relative to saline control, listed as [R] (+)PAI Mesylate, mesylate",89%
same,% of control,"[8]; 2 mg/kg i.p., relative to saline control, mesylate",about 90%
same,% of control,[8]; 5 mg/kg i.p.,81%
same,"Score (total motor activity, 10 hours)",[8]; 5 mg/kg i.p.,"12,893*"
same,mice protected,[2],one out of three
same,% H2O in the brain,closed head injury [9],82.1 ± 0.6 %
same,injury-induced reduction in energy production (NADH response to anoxia),[10]; 2 mg/kg i.p. immediately after injury,blocked the injury-induced reduction in energy production
same,CAP amplitude (Mean ± Std. Error.),"[10]; single injection 0.5 mg/kg immediately after injury, 14 days later",2104 ± 313 µV
